Experimental findings from patent US20050148838A1, “Pharmaceutical discovery and development” (priority 2002, published 2005) are described below.

The nature of one data set: EC-MS oxidation with co-injected glutathione (Phase II type conjugation of EC-generated electrophiles).
Conditions: not given
Consider `Cc1cc(C(C)(C)C)c(O)c(C(C)(C)C)c1` [BHT], for which the “glutathionyl addition products formed on EC oxidation” value is recorded as “mono-glutathionyl addition product”.

A further data set is described as follows: Coulometric EC-MS (voltammetric mass spectrometry), Phase I type EC oxidation. Format: physicochemical. The settings on record: per product ion. The source says:
Referring to FIG. 1A, a Model 1100 LC/MSD single quadrupole mass spectrometer 10 (Agilent Technologies, Palo Alto, Calif., USA) was used in combination with a Coulochem® III ECD 12 and Model 5021 coulometric cell 14 (ESA Inc., Chelmsford, Mass., USA).
Compounds are characterized via automated sequences, in which EC potential is changed from, e.g., 0-1200 mV(vs. Pd) in increments of, e.g., 200 mV. EC current and MS ion abundance at specific mass-to-charge ratios (m/z) is monitored. In accordance with the present invention, EC (e.g., coulometric, or amperometric) and reaction product profiles for various drug candidates can be obtained reproducibly. Peak area for parent compounds is inversely proportional to EC response with concomitant formation of reaction products.
Turning to `C[C@]12CC[C@@H]3c4cc(O)c(O)cc4CC[C@H]3[C@@H]1CC[C@@H]2O` [2-Hydroxyestradiol], the “E½ (½ wave potential for product formation)” value is listed as 250 mV vs. Pd.
`COc1cc2c(cc1O)CC[C@@H]1[C@@H]2CC[C@]2(C)[C@@H](O)CC[C@@H]12` [2-Methoxyestradiol]: the “E½ (½ wave potential for product formation)” value turned out to be 450 mV vs. Pd.
Regarding `C[C@]12CC[C@@H]3c4ccc(O)c(O)c4CC[C@H]3[C@@H]1CC[C@@H]2O` [4-Hydroxyestradiol], the “E½ (½ wave potential for product formation)” value turned out to be 250 mV vs. Pd.
Take `COc1c(O)ccc2c1CC[C@@H]1[C@@H]2CC[C@]2(C)[C@@H](O)CC[C@@H]12` [4-Methoxyestradiol]: the “E½ (½ wave potential for product formation)” value was 450 mV vs. Pd.
On the same count and under the same terms, then `N[C@@H](CCS)C(=O)O` [Homocysteine], with 1100 mV vs. Pd.
Take `CN(C)CCCN1c2ccccc2CCc2ccccc21` [Imipramine]: the “E½ (½ wave potential for product formation)” value came out at 650 mV vs. Pd.
On the same count and under the same terms, as for `CSCC[C@H](N)C(=O)O` [Methionine], the figure is 1100 mV vs. Pd.
On to `CCCCN1C[C@H](O)[C@@H](O)[C@H](O)[C@H]1CO` [N-butyldeoxynojirimycin], for which the “E½ (½ wave potential for product formation)” value is recorded as 1000 mV vs. Pd.
Turning to `CC(C)NCC(O)COc1cccc2ccccc12` (stereo not shown) [Propranolol], the “E½ (½ wave potential for product formation)” value worked out at 1000 mV vs. Pd.
